Active and inactive are the calls of the source. The calls are words filed in the database; no cut-off is given here.

Experimental findings from ChEMBL document CHEMBL3779843, “Discovery of a Potent Class I Protein Arginine Methyltransferase Fragment Inhibitor” (J Med Chem, 2016) are described below.

Assay [1] has as its target T1, Protein arginine N-methyltransferase 6 (Homo sapiens, UniProt Q96LA8). Put plainly: Inhibition of N-terminal hexa-His tagged human PRMT6 expressed in Sf9 cells using 24 residues of biotin labelled histone4 substrate and tritiated 3H-S-adenosylmethionine by scintillation proximity assay. Background: SPA uses beads or plates that emit light when radiolabelled molecules are held near them.

The target in assay [2] is Protein arginine N-methyltransferase 1 (Homo sapiens, UniProt Q99873). Put plainly: Inhibition of human PRMT1 using 24 residues of biotin labelled histone4 substrate and tritiated 3H-S-adenosylmethionine by scintillation proximity assay.
In assay [3] the target is T2, Protein arginine N-methyltransferase 7 (Homo sapiens, UniProt Q9NVM4).
T2 sequence (Q9NVM4 whole entry): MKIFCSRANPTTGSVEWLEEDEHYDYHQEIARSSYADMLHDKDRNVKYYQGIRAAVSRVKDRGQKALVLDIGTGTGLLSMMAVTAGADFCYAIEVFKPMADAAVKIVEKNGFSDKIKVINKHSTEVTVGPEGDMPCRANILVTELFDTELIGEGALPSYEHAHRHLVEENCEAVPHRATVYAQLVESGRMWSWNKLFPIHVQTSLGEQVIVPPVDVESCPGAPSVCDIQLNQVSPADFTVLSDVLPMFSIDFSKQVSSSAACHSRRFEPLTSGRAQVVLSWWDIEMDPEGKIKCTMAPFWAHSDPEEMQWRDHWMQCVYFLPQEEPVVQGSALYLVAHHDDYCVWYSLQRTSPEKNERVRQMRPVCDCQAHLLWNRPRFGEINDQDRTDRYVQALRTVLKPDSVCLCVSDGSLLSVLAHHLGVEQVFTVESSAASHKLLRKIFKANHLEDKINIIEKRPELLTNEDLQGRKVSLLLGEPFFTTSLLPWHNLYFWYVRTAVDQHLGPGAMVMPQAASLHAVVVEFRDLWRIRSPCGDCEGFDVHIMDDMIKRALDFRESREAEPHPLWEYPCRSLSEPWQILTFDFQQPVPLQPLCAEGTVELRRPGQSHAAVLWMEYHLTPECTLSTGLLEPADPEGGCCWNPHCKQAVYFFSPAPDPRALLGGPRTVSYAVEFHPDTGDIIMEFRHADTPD
Put plainly: Inhibition of human PRMT7 using 24 residues of biotin labelled histone4 substrate and tritiated 3H-S-adenosylmethionine by scintillation proximity assay.

For assay [4], the target named is T3, Histone-arginine methyltransferase CARM1 (Homo sapiens, UniProt Q86X55).
T3 sequence (Q86X55 whole entry): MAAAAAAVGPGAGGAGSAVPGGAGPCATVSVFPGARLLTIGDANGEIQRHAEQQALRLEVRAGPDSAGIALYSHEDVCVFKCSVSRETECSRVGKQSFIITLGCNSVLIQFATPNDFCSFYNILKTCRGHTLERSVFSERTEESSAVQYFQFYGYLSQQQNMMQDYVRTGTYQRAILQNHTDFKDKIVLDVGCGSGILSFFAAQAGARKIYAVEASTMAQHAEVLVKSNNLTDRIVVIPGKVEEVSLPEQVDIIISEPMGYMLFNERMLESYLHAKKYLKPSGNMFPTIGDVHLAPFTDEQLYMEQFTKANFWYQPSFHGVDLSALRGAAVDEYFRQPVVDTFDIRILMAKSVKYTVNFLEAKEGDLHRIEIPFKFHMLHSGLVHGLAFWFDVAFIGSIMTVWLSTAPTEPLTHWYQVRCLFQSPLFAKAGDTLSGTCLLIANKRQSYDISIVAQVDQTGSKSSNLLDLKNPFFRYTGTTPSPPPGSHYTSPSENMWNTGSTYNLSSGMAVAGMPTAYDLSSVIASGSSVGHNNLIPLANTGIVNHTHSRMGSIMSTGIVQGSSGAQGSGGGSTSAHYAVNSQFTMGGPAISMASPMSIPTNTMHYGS
Put plainly: (§1) Inhibition of CARM1 (unknown origin) using 24 residues of biotin labelled histone4 substrate and tritiated 3H-S-adenosylmethionine by scintillation proximity assay.

Assay [5] concerns the target Protein arginine N-methyltransferase 5 (Homo sapiens, UniProt O14744). In words: Inhibition of human PRMT5 using 24 residues of biotin labelled histone4 substrate and tritiated 3H-S-adenosylmethionine by scintillation proximity assay.
For assay [6], the target named is Protein arginine N-methyltransferase 8 (Homo sapiens, UniProt Q9NR22). Put plainly: Inhibition of human PRMT8 using 24 residues of biotin labelled histone4 substrate and tritiated 3H-S-adenosylmethionine by scintillation proximity assay.
For assay [7], the target named is T3, Histone-arginine methyltransferase CARM1. In words: Inhibition of human PRMT4 using 24 residues of biotin labelled histone4 substrate and tritiated 3H-S-adenosylmethionine by scintillation proximity assay.
In assay [8] the target is Protein arginine N-methyltransferase 3 (Homo sapiens, UniProt O60678). Put plainly: Inhibition of human PRMT3 using 24 residues of biotin labelled histone4 substrate and tritiated 3H-S-adenosylmethionine by scintillation proximity assay.
In assay [9] the target is T4, Histone-arginine methyltransferase CARM1 (Homo sapiens) (UniProt Q86X55).
T4 sequence (whole entry): T3 sequence (Q86X55 whole entry)
The assay is described as §1.

The target in assay [10] is T3, Histone-arginine methyltransferase CARM1. In words: Inhibition of GST-tagged CARM1 (unknown origin) using tritiated S-adenosylmethionine as substrate at 6 nM by methylation- based filter assay.
The target of assay [11] is Protein arginine N-methyltransferase 6 (Homo sapiens, UniProt Q96LA8, L267E). Put plainly: Inhibition of PRMT6 L267E mutant (unknown origin) using 24 residues of biotin labelled histone4 substrate and tritiated 3H-S-adenosylmethionine by scintillation proximity assay.
The target in assay [12] is T1, Protein arginine N-methyltransferase 6. Put plainly: Inhibition of FLAG-tagged human PRMT6 expressed in HEK293 cells assessed as reduction in H3R2 global methylation incubated for 20 hrs by Western blot method. It is filed as cell-based. A general note: A western blot detects proteins with antibodies after separation by electrophoresis.
Assay [13] has the same target. In words: Binding affinity to Inhibition of N-terminal hexa-His tagged human PRMT6 expressed in Sf9 cells by ITC method. In general terms: Isothermal titration calorimetry measures the heat released or taken up as one component is titrated into another.

Protein arginine N-methyltransferase 5, sequence (O14744 whole entry): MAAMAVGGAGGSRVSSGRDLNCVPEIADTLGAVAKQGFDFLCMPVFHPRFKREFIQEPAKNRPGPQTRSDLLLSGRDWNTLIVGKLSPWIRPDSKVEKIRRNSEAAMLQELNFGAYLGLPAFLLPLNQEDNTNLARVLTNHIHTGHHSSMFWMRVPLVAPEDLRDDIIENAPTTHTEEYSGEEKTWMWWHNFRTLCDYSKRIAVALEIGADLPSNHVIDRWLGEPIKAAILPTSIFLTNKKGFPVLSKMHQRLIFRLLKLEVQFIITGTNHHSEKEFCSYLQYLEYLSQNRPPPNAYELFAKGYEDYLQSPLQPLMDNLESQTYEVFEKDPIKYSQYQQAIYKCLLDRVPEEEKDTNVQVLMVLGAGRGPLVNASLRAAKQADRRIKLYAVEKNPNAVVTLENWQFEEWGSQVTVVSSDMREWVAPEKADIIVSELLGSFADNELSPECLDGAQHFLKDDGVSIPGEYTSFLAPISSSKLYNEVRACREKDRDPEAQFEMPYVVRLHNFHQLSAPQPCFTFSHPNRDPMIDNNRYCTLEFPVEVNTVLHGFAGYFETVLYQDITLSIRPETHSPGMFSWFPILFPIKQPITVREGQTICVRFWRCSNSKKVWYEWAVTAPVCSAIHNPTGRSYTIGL
Protein arginine N-methyltransferase 3, sequence (O60678 whole entry): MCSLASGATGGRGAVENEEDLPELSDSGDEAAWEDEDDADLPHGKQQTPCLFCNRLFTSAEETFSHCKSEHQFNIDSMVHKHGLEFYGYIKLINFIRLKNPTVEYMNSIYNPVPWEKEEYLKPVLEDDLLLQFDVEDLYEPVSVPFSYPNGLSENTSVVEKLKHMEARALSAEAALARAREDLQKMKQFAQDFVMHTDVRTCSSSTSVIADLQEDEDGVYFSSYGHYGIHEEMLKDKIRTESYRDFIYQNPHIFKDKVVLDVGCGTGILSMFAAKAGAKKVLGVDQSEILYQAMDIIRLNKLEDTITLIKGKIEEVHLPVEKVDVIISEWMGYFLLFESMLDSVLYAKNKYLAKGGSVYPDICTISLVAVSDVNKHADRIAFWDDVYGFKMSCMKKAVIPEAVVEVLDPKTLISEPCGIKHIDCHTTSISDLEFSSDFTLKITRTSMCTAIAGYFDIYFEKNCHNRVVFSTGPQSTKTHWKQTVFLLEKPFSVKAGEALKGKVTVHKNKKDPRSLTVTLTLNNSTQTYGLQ
Protein arginine N-methyltransferase 8, sequence (Q9NR22 whole entry): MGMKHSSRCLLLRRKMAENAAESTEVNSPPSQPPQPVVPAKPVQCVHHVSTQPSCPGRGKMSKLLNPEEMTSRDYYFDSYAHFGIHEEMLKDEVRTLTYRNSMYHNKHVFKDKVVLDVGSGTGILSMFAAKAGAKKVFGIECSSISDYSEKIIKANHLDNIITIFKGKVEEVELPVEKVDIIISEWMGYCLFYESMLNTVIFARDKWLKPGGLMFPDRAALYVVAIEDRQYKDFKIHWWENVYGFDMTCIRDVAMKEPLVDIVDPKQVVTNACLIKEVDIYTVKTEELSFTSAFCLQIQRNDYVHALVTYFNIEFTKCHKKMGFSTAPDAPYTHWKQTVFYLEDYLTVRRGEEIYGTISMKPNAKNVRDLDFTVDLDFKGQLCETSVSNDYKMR
T1 sequence (Q96LA8 whole entry): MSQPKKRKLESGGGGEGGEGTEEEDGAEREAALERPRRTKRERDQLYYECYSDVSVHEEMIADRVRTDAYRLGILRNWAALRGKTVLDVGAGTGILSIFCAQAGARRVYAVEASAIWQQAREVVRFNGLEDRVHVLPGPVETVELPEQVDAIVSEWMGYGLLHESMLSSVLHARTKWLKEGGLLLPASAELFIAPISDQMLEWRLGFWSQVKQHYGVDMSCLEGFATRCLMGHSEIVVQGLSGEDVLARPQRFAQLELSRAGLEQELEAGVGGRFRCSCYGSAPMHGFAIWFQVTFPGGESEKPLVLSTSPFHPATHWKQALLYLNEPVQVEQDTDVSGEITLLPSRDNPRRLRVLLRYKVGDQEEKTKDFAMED
Protein arginine N-methyltransferase 1, sequence (Q99873 whole entry): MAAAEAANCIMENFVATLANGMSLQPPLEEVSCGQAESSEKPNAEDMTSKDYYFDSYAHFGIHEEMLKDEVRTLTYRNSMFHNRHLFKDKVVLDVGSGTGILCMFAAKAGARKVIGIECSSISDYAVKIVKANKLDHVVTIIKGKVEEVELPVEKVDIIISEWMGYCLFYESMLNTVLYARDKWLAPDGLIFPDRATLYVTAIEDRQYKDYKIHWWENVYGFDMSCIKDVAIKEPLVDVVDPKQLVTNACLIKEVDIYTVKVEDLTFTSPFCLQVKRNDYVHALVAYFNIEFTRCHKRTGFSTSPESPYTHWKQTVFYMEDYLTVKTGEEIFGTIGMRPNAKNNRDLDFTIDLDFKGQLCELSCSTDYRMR
Protein arginine N-methyltransferase 6 (Homo sapiens, UniProt Q96LA8, L267E), sequence (Q96LA8 whole entry L267E): as the sequence (Q96LA8 whole entry) above, with L267E counted along it

Turning to `Cc1nc(N)sc1-n1ccc(C(F)(F)F)n1`, the half-maximal inhibitory concentration (IC50) – broadly, the point on the concentration scale where inhibition reaches its midpoint – in assay [1] was found to be 46 µM.

For the compound `CCNC(=O)[C@@H](C)N`, the IC50 in assay [2] was greater than 1000 µM; in assay [3], “Not Active”; in [1], greater than 200 µM; in assay [4] it was 105 µM; in assay [5] it was “Not Active”; in assay [6] it was greater than 200 µM. Further, the IC50 in assay [7] was 105 µM; in [8] it was greater than 1000 µM.

On to `CNCCN1CCC(c2ccc3[nH]c(-c4ccccc4OC)c(Cl)c3c2)CC1`, for which the inhibition entry in [9] was “Active”.

The compound `CNCc1cccc(-c2ccco2)c1` came in with an IC50 in [1] of 146 µM.

In turn, `C[C@@H](N)C(=O)NCc1cccc(-n2nc(C(F)(F)F)cc2-c2nnc(-c3cccc4[nH]ccc34)o2)c1` registered an IC50 in assay [10] of 0.027 µM.

For the compound `CNCCN(C)C`, the half-maximal inhibitory concentration (IC50) result is “Not Active” in assay [3]; 5 µM in [1]; 3 µM in [4]; “Not Active” in assay [5]; 7 µM in assay [6]; 3 µM in assay [7]. Besides, the 50% inhibitory concentration (IC50) in [8] amounted to 35 µM.

For the compound `CNCc1cccc(-c2cccnc2)c1`, inhibition in assay [1] was half-maximal at 104 µM (IC50).

In turn, `Nc1ccc(S(=O)(=O)Nc2nccs2)cc1` [SULFATHIAZOLE] yielded an IC50 in assay [1] of 430 µM.

As for `CNCCN1CCC(C)CC1`, the IC50 is 48 µM in [2]; “Not Active” in assay [3]; 0.2 µM in assay [4]; “Not Active” in assay [5]; 15 µM in assay [6]; 0.2 µM in assay [7]. Further, the IC50 in assay [8] is greater than 500 µM.

For the compound `NCCN1CCC(Cc2ccccc2)CC1`, the half-maximal inhibitory concentration (IC50) in assay [11] was 0.39 µM; in [12], 21 µM; in assay [3] it was “Not Active”; in assay [1] it was 0.23 µM; in [4], 1 µM; in assay [5] it was “Not Active”. The half-inhibitory concentration (IC50) in [6] worked out at 2.1 µM; in assay [7] it was 1 µM; in assay [8] it was 19 µM. Further, the Kd – broadly, the constant that tells how readily two partners part at equilibrium – in assay [13] is 0.97 µM.
